Assay: xn = mol fraction of the nth substance listed
Conditions: Liquid; for electrical conductivity: Alternating current cell with electrodes; for viscosity: Falling or rolling sphere viscometry; for mass density: Vibrating tube method

N#CCCCC#N [pentanedinitrile] + CCCC[N+]1(C)CCCC1.O=S(=O)([N-]S(=O)(=O)C(F)(F)F)C(F)(F)F
Conditions | electrical conductivity, 100 kPa [S/m] | mass density, 101 kPa [kg/m3] | viscosity, 101 kPa [mPa·s]
292.9 K, x2 = 0.2589 | 0.572 | – | –
293.15 K, x2 = 0 | – | 987 | 6.97
293.15 K, x2 = 0.1003 | – | 1094.2 | 9.92
293.15 K, x2 = 0.1997 | – | 1167.5 | 13.34
293.15 K, x2 = 0.2999 | – | 1222.5 | 17.57
293.15 K, x2 = 0.4002 | – | 1266.7 | 22.88
293.15 K, x2 = 0.5006 | – | 1300.5 | 28.92
293.15 K, x2 = 0.6003 | – | 1327.5 | 38.47
293.15 K, x2 = 0.6998 | – | 1349.1 | 48.33
293.15 K, x2 = 0.8004 | – | 1368.5 | 61.37
293.15 K, x2 = 0.9002 | – | 1385.4 | 78.19
297.4 K, x2 = 0.2589 | 0.651 | – | –
298.15 K, x2 = 0 | – | 983.1 | 6.12
298.15 K, x2 = 0.1003 | – | 1090.3 | 8.55
298.15 K, x2 = 0.1997 | – | 1163.3 | 11.42
298.15 K, x2 = 0.2999 | – | 1218.1 | 14.81
298.15 K, x2 = 0.4002 | – | 1262.2 | 19.17
298.15 K, x2 = 0.5006 | – | 1296.1 | 23.95
298.15 K, x2 = 0.6003 | – | 1323.1 | 31.5
298.15 K, x2 = 0.6998 | – | 1344.8 | 39.56
298.15 K, x2 = 0.8004 | – | 1364.3 | 49.4
298.15 K, x2 = 0.9002 | – | 1380.9 | 62.15
303.15 K, x2 = 0 | – | 979.1 | 5.39
303.15 K, x2 = 0.1003 | – | 1086.2 | 7.42
303.15 K, x2 = 0.1997 | – | 1159 | 9.83
303.15 K, x2 = 0.2999 | – | 1213.8 | 12.69
303.15 K, x2 = 0.4002 | – | 1257.9 | 16.22
303.15 K, x2 = 0.5006 | – | 1291.7 | 20.1
303.15 K, x2 = 0.6003 | – | 1318.6 | 26.13
303.15 K, x2 = 0.6998 | – | 1340.3 | 32.56
303.15 K, x2 = 0.8004 | – | 1359.8 | 40.38
303.15 K, x2 = 0.9002 | – | 1376.4 | 50.27
304.3 K, x2 = 0.2589 | 0.782 | – | –
313.15 K, x2 = 0 | – | 971.2 | 4.25
313.15 K, x2 = 0.1003 | – | 1077.9 | 5.78
313.15 K, x2 = 0.1997 | – | 1150.5 | 7.46
313.15 K, x2 = 0.2999 | – | 1205.1 | 9.52
313.15 K, x2 = 0.4002 | – | 1249 | 11.97
313.15 K, x2 = 0.5006 | – | 1282.8 | 14.66
313.15 K, x2 = 0.6003 | – | 1309.7 | 18.67
313.15 K, x2 = 0.6998 | – | 1331.3 | 22.97
313.15 K, x2 = 0.8004 | – | 1350.8 | 28.01
313.15 K, x2 = 0.9002 | – | 1367.2 | 34.37
314.5 K, x2 = 0.2589 | 1 | – | –
323.15 K, x2 = 0 | – | 963.4 | 3.47
323.15 K, x2 = 0.1003 | – | 1069.7 | 4.6
323.15 K, x2 = 0.1997 | – | 1142 | 5.84
323.15 K, x2 = 0.2999 | – | 1196.5 | 7.39
323.15 K, x2 = 0.4002 | – | 1240.3 | 9.16
323.15 K, x2 = 0.5006 | – | 1274 | 11.11
323.15 K, x2 = 0.6003 | – | 1300.9 | 13.88
323.15 K, x2 = 0.6998 | – | 1322.5 | 16.93
323.15 K, x2 = 0.8004 | – | 1342 | 18.72
323.15 K, x2 = 0.9002 | – | 1358.2 | 24.65
323.2 K, x2 = 0.2589 | 1.21 | – | –
333.15 K, x2 = 0 | – | 955.6 | 2.88
333.15 K, x2 = 0.1003 | – | 1061.5 | 3.72
333.15 K, x2 = 0.1997 | – | 1133.7 | 4.71
333.15 K, x2 = 0.2999 | – | 1188 | 5.85
333.15 K, x2 = 0.4002 | – | 1231.7 | 7.27
333.15 K, x2 = 0.5006 | – | 1265.2 | 8.67
333.15 K, x2 = 0.6003 | – | 1291.9 | 10.69
333.15 K, x2 = 0.6998 | – | 1313.8 | 13.01
333.15 K, x2 = 0.8004 | – | 1333 | 14.2
333.15 K, x2 = 0.9002 | – | – | 18.39
336 K, x2 = 0.2589 | 1.55 | – | –

N#CCCCCC#N [hexanedinitrile] + CCCC[N+]1(C)CCCC1.O=S(=O)([N-]S(=O)(=O)C(F)(F)F)C(F)(F)F
101 kPa
Conditions | electrical conductivity [S/m] | mass density [kg/m3] | viscosity [mPa·s]
291.8 K, x2 = 0.2889 | 0.495 | – | –
293.15 K, x2 = 0 | – | 962.3 | 7.17
293.15 K, x2 = 0.1002 | – | 1063.5 | 9.85
293.15 K, x2 = 0.1996 | – | 1138 | 13.22
293.15 K, x2 = 0.3004 | – | 1196.8 | 17.56
293.15 K, x2 = 0.3995 | – | 1243 | 25.01
293.15 K, x2 = 0.5001 | – | 1281.6 | 31
293.15 K, x2 = 0.6 | – | 1313.1 | 37.48
293.15 K, x2 = 0.7011 | – | 1340 | 48.32
293.15 K, x2 = 0.7996 | – | 1362.5 | 59.96
293.15 K, x2 = 0.8997 | – | 1382.3 | 77.23
295.2 K, x2 = 0.2889 | 0.551 | – | –
298.15 K, x2 = 0 | – | 958.6 | 6.31
298.15 K, x2 = 0.1002 | – | 1059.5 | 8.45
298.15 K, x2 = 0.1996 | – | 1133.9 | 11.27
298.15 K, x2 = 0.3004 | – | 1192.5 | 14.79
298.15 K, x2 = 0.3995 | – | 1238.7 | 21.46
298.15 K, x2 = 0.5001 | – | 1277.3 | 25.62
298.15 K, x2 = 0.6 | – | 1308.6 | 30.92
298.15 K, x2 = 0.7011 | – | 1335.6 | 39.22
298.15 K, x2 = 0.7996 | – | 1358.2 | 48.21
298.15 K, x2 = 0.8997 | – | 1378 | 61.49
299.3 K, x2 = 0.2889 | 0.62 | – | –
303.15 K, x2 = 0 | – | 954.8 | 5.53
303.15 K, x2 = 0.1002 | – | 1055.6 | 7.35
303.15 K, x2 = 0.1996 | – | 1129.8 | 9.71
303.15 K, x2 = 0.3004 | – | 1188.3 | 12.61
303.15 K, x2 = 0.3995 | – | 1234.4 | 18.54
303.15 K, x2 = 0.5001 | – | 1272.9 | 21.53
303.15 K, x2 = 0.6 | – | 1304.2 | 25.59
303.15 K, x2 = 0.7011 | – | 1331.2 | 32.33
303.15 K, x2 = 0.7996 | – | 1353.8 | 39.41
303.15 K, x2 = 0.8997 | – | 1373.5 | 49.74
303.9 K, x2 = 0.2889 | 0.702 | – | –
313.15 K, x2 = 0 | – | 947.2 | 4.54
313.15 K, x2 = 0.1002 | – | 1047.6 | 5.72
313.15 K, x2 = 0.1996 | – | 1121.5 | 7.43
313.15 K, x2 = 0.3004 | – | 1179.9 | 9.44
313.15 K, x2 = 0.3995 | – | 1225.8 | 14.05
313.15 K, x2 = 0.5001 | – | 1264.2 | 15.63
313.15 K, x2 = 0.6 | – | 1295.3 | 18.34
313.15 K, x2 = 0.7011 | – | 1322.3 | 22.83
313.15 K, x2 = 0.7996 | – | 1344.8 | 27.42
313.15 K, x2 = 0.8997 | – | 1364.5 | 34.01
313.4 K, x2 = 0.2889 | 0.9 | – | –
322.2 K, x2 = 0.2889 | 1.1 | – | –
323.15 K, x2 = 0 | – | 939.8 | 3.73
323.15 K, x2 = 0.1002 | – | 1039.8 | 4.53
323.15 K, x2 = 0.1996 | – | 1113.4 | 5.86
323.15 K, x2 = 0.3004 | – | 1171.6 | 7.32
323.15 K, x2 = 0.3995 | – | 1217.3 | 10.01
323.15 K, x2 = 0.5001 | – | 1255.6 | 11.82
323.15 K, x2 = 0.6 | – | 1286.7 | 13.7
323.15 K, x2 = 0.7011 | – | 1313.6 | 16.83
323.15 K, x2 = 0.7996 | – | 1336 | 19.97
323.15 K, x2 = 0.8997 | – | 1355.6 | 24.42
332.9 K, x2 = 0.2889 | 1.37 | – | –
333.15 K, x2 = 0 | – | 932.3 | 3.02
333.15 K, x2 = 0.1002 | – | 1031.9 | 3.74
333.15 K, x2 = 0.1996 | – | 1105.4 | 4.8
333.15 K, x2 = 0.3004 | – | 1163.3 | 5.87
333.15 K, x2 = 0.3995 | – | 1206.3 | 7.86
333.15 K, x2 = 0.5001 | – | 1246.8 | 9.21
333.15 K, x2 = 0.6 | – | 1277.9 | 10.59
333.15 K, x2 = 0.7011 | – | 1304.7 | 12.85
333.15 K, x2 = 0.7996 | – | 1326.7 | 15.09
333.15 K, x2 = 0.8997 | – | 1346.3 | 18.22

Source: the NIST ThermoML archive (doi:10.1021/acs.jced.6b00718)
